Measured values from PubChem BioAssay AID256 (DTP/NCI, 2004).
Where “and” joins values, the source holds several entries; their conditions need not be identical. Equal values may be shown once. Toxic doses and inconclusive results are not listed. The calls were made as follows: active = survival T/C of 150% or more; inactive = T/C below 125% in these data.

Tested on: CD2F1 mice, L1210 leukemia ip, survival T/C
Assay: NCI In Vivo Anticancer Drug Screen. Data for tumor model L1210 Leukemia (intraperitoneal) in CD2F1 (CDF1) mice
Settings: higher = longer survival
In short: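 Compound-dosed mice with transplantable tumor versus matched vehicle controls; endpoint ratio T/C reported.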

[1] = endpoint: mean survival time, dose: 100.0 mg/kg/injection, schedule: Q01DX009 (ip), vehicle: saline with Tween-80
[2] = endpoint: mean survival time, dose: 200.0 mg/kg/injection, schedule: Q01DX009 (ip), vehicle: saline with Tween-80
[3] = endpoint: mean survival time, dose: 400.0 mg/kg/injection, schedule: Q01DX009 (ip), vehicle: saline with Tween-80
[4] = endpoint: mean survival time, dose: 100.0 mg/kg/injection, schedule: Q04DX003 (ip), vehicle: saline with Tween-80
[5] = endpoint: mean survival time, dose: 400.0 mg/kg/injection, schedule: Q04DX003 (ip), vehicle: saline with Tween-80
[6] = endpoint: mean survival time, dose: 100.0 mg/kg/injection, schedule: Q01DX001 (ip), vehicle: saline with Tween-80
[7] = endpoint: mean survival time, dose: 50.0 mg/kg/injection, schedule: Q01DX009 (ip), vehicle: saline with Tween-80
[8] = endpoint: mean survival time, dose: 100.0 mg/kg/injection, schedule: Q04DX003 (ip), vehicle: saline
[9] = endpoint: mean survival time, dose: 25.0 mg/kg/injection, schedule: Q01DX009 (ip), vehicle: saline
[10] = endpoint: mean survival time, dose: 200.0 mg/kg/injection, schedule: Q04DX003 (ip), vehicle: saline with Tween-80
[11] = endpoint: mean survival time, dose: 100.0 mg/kg/injection, schedule: Q01DX009 (ip), vehicle: saline
[12] = endpoint: mean survival time, dose: 25.0 mg/kg/injection, schedule: Q01DX001 (ip), vehicle: saline with Tween-80
[13] = endpoint: mean survival time, dose: 50.0 mg/kg/injection, schedule: Q01DX001 (ip), vehicle: saline with Tween-80

Measured: T/C

Cc1ccc2c(c1)CCCN2C(=O)c1ccccc1
inactive: endpoint: mean survival time, dose: 100.0 mg/kg/injection, schedule: Q04DX003 (ip), vehicle: other 89 % of control | endpoint: mean survival time, dose: 200.0 mg/kg/injection, schedule: Q04DX003 (ip), vehicle: other 92 % of control | endpoint: mean survival time, dose: 400.0 mg/kg/injection, schedule: Q04DX003 (ip), vehicle: other 94 % of control

N#CS.N=C=S.N=C=S.[Co+3].[NH-]CC[NH-].[NH-]CC[NH-]
inactive: endpoint: mean survival time, dose: 100.0 mg/kg/injection, schedule: Q04DX002 (ip), vehicle: saline 111 % of control | endpoint: mean survival time, dose: 200.0 mg/kg/injection, schedule: Q04DX002 (ip), vehicle: saline 104 % of control

OCCOc1cccc(OCCO)c1
inactive: [1] 96 % of control | [2] 96 % of control | [3] 115 % of control

CC(=O)Nc1cccc(OCCOc2ccccc2[N+](=O)[O-])c1
inactive: endpoint: mean survival time, dose: 100.0 mg/kg/injection, schedule: Q04DX002 (ip), vehicle: Klucel (hydroxypropylcellulose) (HPC) 95 % of control | endpoint: mean survival time, dose: 200.0 mg/kg/injection, schedule: Q04DX002 (ip), vehicle: Klucel (hydroxypropylcellulose) (HPC) 107 % of control | endpoint: mean survival time, dose: 400.0 mg/kg/injection, schedule: Q04DX002 (ip), vehicle: Klucel (hydroxypropylcellulose) (HPC) 103 % of control

COc1ccccc1OC(=O)Nc1ccc(C)c([N+](=O)[O-])c1
inactive: endpoint: mean survival time, dose: 25.0 mg/kg/injection, schedule: Q04DX003 (ip), vehicle: saline with Tween-80 96 % of control | endpoint: mean survival time, dose: 50.0 mg/kg/injection, schedule: Q04DX003 (ip), vehicle: saline with Tween-80 93 % of control | [4] 98 % of control and 103 % of control | [5] 97 % of control

NN1CCOC1=O
inactive: [6] 97 % of control | endpoint: mean survival time, dose: 200.0 mg/kg/injection, schedule: Q01DX001 (ip), vehicle: saline with Tween-80 100 % of control

O=C1c2ccccc2CCC1(Br)C(Br)c1ccccc1 (stereo not given)
inactive: endpoint: mean survival time, dose: 100.0 mg/kg/injection, schedule: Q01DX009 (ip), vehicle: Klucel (hydroxypropylcellulose) (HPC) 100 % of control | endpoint: mean survival time, dose: 200.0 mg/kg/injection, schedule: Q01DX009 (ip), vehicle: Klucel (hydroxypropylcellulose) (HPC) 100 % of control | endpoint: mean survival time, dose: 400.0 mg/kg/injection, schedule: Q01DX009 (ip), vehicle: Klucel (hydroxypropylcellulose) (HPC) 96 % of control

O=C1NC(=O)C(Cc2ccccc2)C(=O)N1
inactive: [7] 92 % of control | [1] 96 % of control | [2] 96 % of control

CCCCCCCC/C=C/CCCCCCCCCCCCBr
inactive: [1] 104 % of control | [8] 98 % of control | [2] 93 % of control | endpoint: mean survival time, dose: 200.0 mg/kg/injection, schedule: Q04DX003 (ip), vehicle: saline 97 % of control | [3] 103 % of control | endpoint: mean survival time, dose: 400.0 mg/kg/injection, schedule: Q04DX003 (ip), vehicle: saline 92 % of control

CCC[P+](c1ccccc1)(c1ccccc1)c1ccccc1
inactive: endpoint: mean survival time, dose: 3.13 mg/kg/injection, schedule: Q01DX009 (ip), vehicle: saline 106 % of control | endpoint: mean survival time, dose: 6.25 mg/kg/injection, schedule: Q01DX009 (ip), vehicle: saline 113 % of control | endpoint: mean survival time, dose: 12.5 mg/kg/injection, schedule: Q01DX009 (ip), vehicle: saline 120 % of control | [9] 117 % of control | endpoint: mean survival time, dose: 75.0 mg/kg/injection, schedule: Q01DX001 (ip), vehicle: other 93 % of control

Cc1ccc(Cl)c2nc(-c3ccccc3)ccc12
inactive: endpoint: mean survival time, dose: 37.5 mg/kg/injection, schedule: Q01DX009 (ip), vehicle: saline 105 % of control | endpoint: mean survival time, dose: 75.0 mg/kg/injection, schedule: Q01DX009 (ip), vehicle: saline 116 % of control | endpoint: mean survival time, dose: 75.0 mg/kg/injection, schedule: Q04DX003 (ip), vehicle: saline 112 % of control | endpoint: mean survival time, dose: 150.0 mg/kg/injection, schedule: Q01DX009 (ip), vehicle: saline 101 % of control | endpoint: mean survival time, dose: 150.0 mg/kg/injection, schedule: Q04DX003 (ip), vehicle: saline 103 % of control | endpoint: mean survival time, dose: 300.0 mg/kg/injection, schedule: Q04DX003 (ip), vehicle: saline 93 % of control

O=S(O)C(=NCc1ccccc1)NCc1ccccc1
inactive: [1] 105 % of control | [2] 86 % of control

CCCCNC(=O)/C=C\C(=O)O
inactive: [4] 97 % of control | [10] 100 % of control | [5] 100 % of control

Cc1cc(C)[nH]c(=O)c1
inactive: [11] 106 % of control | endpoint: mean survival time, dose: 200.0 mg/kg/injection, schedule: Q01DX009 (ip), vehicle: saline 106 % of control | endpoint: mean survival time, dose: 400.0 mg/kg/injection, schedule: Q01DX009 (ip), vehicle: saline 106 % of control

OC1CCC(O)C2C3CCC(C3)C12 (stereo not given)
inactive: [1] 98 % of control | [2] 100 % of control | [3] 102 % of control

N=Cc1c(O)n(-c2ccccc2)c(=O)n(-c2ccccc2)c1=O
inactive: [4] 94 % of control | [10] 94 % of control | [5] 92 % of control

CCCCCCCCCCCCCCCC(O)S(=O)(=O)O (stereo not given)
inactive: [7] 93 % of control | [1] 94 % of control

CCC[As](=O)(O)CC[As](=O)(O)CCC
inactive: [12] 95 % of control | [13] 95 % of control | [6] 103 % of control

CCCC(=O)O.CCCC(=O)O.CCCC(=O)O.CCCC(=O)O.O=P1(N(CCCl)CCCl)NCCCO1.O=P1(N(CCCl)CCCl)NCCCO1.[Rh].[Rh] (stereo not given)
inactive: endpoint: median survival time, dose: 0.13 mg/kg/injection, schedule: Q01DX001 (ip), vehicle: olive oil, sesame oil, peanut oil 101 % of control | endpoint: median survival time, dose: 0.25 mg/kg/injection, schedule: Q01DX001 (ip), vehicle: olive oil, sesame oil, peanut oil 102 % of control | endpoint: median survival time, dose: 0.5 mg/kg/injection, schedule: Q01DX001 (ip), vehicle: olive oil, sesame oil, peanut oil 103 % of control | endpoint: median survival time, dose: 1.0 mg/kg/injection, schedule: Q01DX001 (ip), vehicle: olive oil, sesame oil, peanut oil 95 % of control | endpoint: median survival time, dose: 2.0 mg/kg/injection, schedule: Q01DX001 (ip), vehicle: olive oil, sesame oil, peanut oil 102 % of control

NC(=O)c1c2ccccc2nn1C1OC(CO)C(O)C1O (stereo not given)
inactive: endpoint: mean survival time, dose: 100.0 mg/kg/injection, schedule: Q01DX005 (ip), vehicle: saline 96 % of control | endpoint: mean survival time, dose: 200.0 mg/kg/injection, schedule: Q01DX005 (ip), vehicle: saline 102 % of control

CC(C)(CCC(=S)N1CCOCC1)C1CCCCC1
inactive: [4] 97 % of control | [10] 96 % of control | [5] 97 % of control

O=C(CC(c1ccccc1)c1ccccc1)c1ccccc1
inactive: [1] 98 % of control | [2] 95 % of control | [3] 98 % of control

CCOC1=NC(C)(C)CC(C)O1 (stereo not given)
inactive: [9] 109 % of control | endpoint: mean survival time, dose: 50.0 mg/kg/injection, schedule: Q01DX009 (ip), vehicle: saline 109 % of control | [11] 103 % of control | [8] 97 % of control

COc1cccc2c1C(=O)c1c(O)c3c(c(O)c1C2=O)C[C@@](O)(C(=O)CO)C[C@@H]3OC1CC(NC=O)C(O)C(C)O1 (stereo not given in full)
inactive: endpoint: mean survival time, dose: 6.25 mg/kg/injection, schedule: Q04DX003 (ip), vehicle: water 93 % of control | endpoint: mean survival time, dose: 12.5 mg/kg/injection, schedule: Q04DX003 (ip), vehicle: water 93 % of control | endpoint: mean survival time, dose: 25.0 mg/kg/injection, schedule: Q04DX003 (ip), vehicle: water 102 % of control | endpoint: mean survival time, dose: 50.0 mg/kg/injection, schedule: Q04DX003 (ip), vehicle: water 112 % of control | endpoint: mean survival time, dose: 100.0 mg/kg/injection, schedule: Q04DX003 (ip), vehicle: water 114 % of control

C=C1C(=O)O[C@H]2C[C@@]3(C)[C@H](O)CCC(=C)[C@@H]3[C@@H](OC(C)=O)[C@H]12
inactive: endpoint: mean survival time, dose: 75.0 mg/kg/injection, schedule: Q01DX001 (ip), vehicle: saline 102 % of control | endpoint: mean survival time, dose: 150.0 mg/kg/injection, schedule: Q01DX001 (ip), vehicle: saline 106 % of control | endpoint: mean survival time, dose: 300.0 mg/kg/injection, schedule: Q01DX001 (ip), vehicle: saline 103 % of control

ClCc1ccc(Cl)cc1
inactive: [12] 102 % of control | [13] 106 % of control | [6] 92 % of control and 102 % of control

CCCCCCCCCSCCS
inactive: endpoint: mean survival time, dose: 100.0 mg/kg/injection, schedule: Q04DX002 (ip), vehicle: saline with Tween-80 96 % of control | endpoint: mean survival time, dose: 200.0 mg/kg/injection, schedule: Q04DX002 (ip), vehicle: saline with Tween-80 89 % of control | endpoint: mean survival time, dose: 400.0 mg/kg/injection, schedule: Q04DX002 (ip), vehicle: saline with Tween-80 100 % of control
